Assay results: patent US7795267B2, “Bicyclic piperazine compound having TGR23 antagonistic activity” (Takeda Pharmaceutical Company Limited, priority 2003, dated 2010)

Key:
[1] = system: human colon cancer cell strain LS 174T; assay: Inhibition of DNA synthesis by cancer cells ([methyl-3H]-thymidine uptake under TGR23 ligand stimulation); assay type: cell-based; settings: LS174T, LS 174T cells, 10 nM TGR23 ligand, read-out: IC50 value of the test compound in DNA synthesis
Experimental: The cells of human colon cancer cell strain LS 174T (ATCC number: CL-188) were inoculated to a 96-well plate to a concentration of 20,000 cells per well, and then incubated in an EMEM medium (Nikken Biology and Medical Research Center) containing 0.05% bovine serum albumin not containing fatty acids (Sigma Chemical Co.) for 24 hours. After the 15-minute preincubation of these cells with the test compound, the cells were incubated in the presence of 10 nM of a TGR23 ligand [a human TGR23-2 ligand (1-20) represented by SEQ ID NO: 23 in WO 03/25179 was used] for 18 hours. Next, the cells were incubated in the presence of 0.25 μCi of [methyl-^3H]-thymidine (Amersham Biosciences KK) per well for 6 hours. The [methyl-^3H]-thymidine incorporated into the cancer cell DNA was measured in the following manner. After discarding the culture supernatant, 100 μL of ice-cold 10% trichloroacetic acid per well was added to the cells having taken up [methyl-^3H]-thymidine, and the cells were maintained on ice for 15 minutes. After discarding the trichloroacetic acid solution, 300 μL of a 0.2 N sodium hydroxide solution per well was added to the immobilized cells, and then the cells were kept warm overnight at 37° C. The amount of [methyl-^3H]-thymidine in the cell lysate was measured with a liquid scintillation counter.
The rate of DNA synthesis inhibition by the test compound was defined as the relative value obtained by subtracting the amount of [methyl-^3H]-thymidine uptake determined without stimulation from the uptake amount determined in the presence of the test compound and 10 nM of the TGR23 ligand, when the value obtained by subtracting the amount of [methyl-^3H]-thymidine uptake determined without stimulation from the uptake amount determined in the presence of the stimulation by 10 nM of the TGR23 ligand was taken as 100%. The IC50 value of the test compound in DNA synthesis was defined as the concentration of the test compound required to achieve 50% of the DNA synthesis inhibition rate.

[2] = system: human colon cancer cell strain LS 174T; assay: Cell growth inhibition (MTT method, TGR23 ligand stimulation); assay type: cell-based; settings: LS174T, LS 174T cells, 10 nM TGR23 ligand, 24 hours, read-out: IC50 value of the test compound for cell growth
Experimental: The cells of human colon cancer cell strain LS 174T (ATCC number: CL-188) were inoculated in a 96-well plate to a concentration of 40,000 cells per well, and then the cells were incubated for 24 hours in an EMEM medium containing 0.05% bovine serum albumin not containing fatty acids. After a 15-minute pretreatment of these cells with the test compound, LS 174T cells were incubated for 24 hours in the presence of 10 nM of a TGR23 ligand [a human TGR23-2 ligand (1-20) represented by SEQ ID NO: 23 in WO 03/25179 was used]. Cell growth was evaluated by the MTT method. Cells were lysed by keeping them warm in an MTT solution (3-(4,5-dimethylthiazol-2-yl)-2,5-diphenyl tetrazolium bromide) at a final concentration of 0.5 mg/mL at 37° C. for 4 hours, and then in a 5% SDS solution at 37° C. for 24 hours. The absorbance of the cell lysate was measured using a 96-well plate reader. […]
The cell growth inhibitory rate of the test compound was defined as the relative value obtained by subtracting the absorbance change determined without stimulation from the absorbance change determined in the presence of the test compound and 10 nM of the TGR23 ligand, when the value obtained by subtracting the absorbance change determined without stimulation from the absorbance change determined in the presence of stimulation by 10 nM of the TGR23 ligand was taken as 100%. […]

Row | SMILES | IC50 [1] [nM] | IC50 [2] [nM]
1 | O=C(NCCN1CC=CCC1)N1CCN2C(=O)OC(c3ccccc3)(c3ccccc3)C2C1 (single isomer, unassigned; (+)) [Example 201, (+)-N-[2-(3,6-Dihydropyridin-1(2H)-yl)ethyl]-tetrahydro-3-oxo-1,1-diphenyl-3H-oxazolo[3,4-a]pyrazine-7(1H)-carboxamide] | ≤ 1000 | –
2 | O=C(NCCN1CC=CCC1)N1CCN2C(=O)OC(c3ccccc3)(c3ccccc3)C2C1 (centres unmarked) [Example 85, N-[2-(3,6-Dihydropyridin-1(2H)-yl)ethyl]-tetrahydro-3-oxo-1,1-diphenyl-3H-oxazolo[3,4-a]pyrazine-7(1H)-carboxamide] | ≤ 1000 | –
3 | O=C(NCc1ccc(F)c(F)c1)N1CCN2C(=O)OC(c3ccccc3)(c3ccccc3)C2C1 (centres unmarked) [Example 97, N-[(3,4-Difluorophenyl)methyl]-tetrahydro-3-oxo-1,1-diphenyl-3H-oxazolo[3,4-a]pyrazine-7(1H)-carboxamide] | ≤ 1000 | –
4 | O=C(NCc1cccc(F)c1)N1CCN2C(=O)OC(c3ccccc3)(c3ccccc3)C2C1 (centres unmarked) [Example 28, N-[(3-Fluorophenyl)methyl]-tetrahydro-3-oxo-1,1-diphenyl-3H-oxazolo[3,4-a]pyrazine-7(1H)-carboxamide] | ≤ 1000 | –
5 | O=C(NCc1ccccc1)N1CCN2C(=O)OC(c3ccccc3)(c3ccccc3)C2C1 (centres unmarked) [Example 17, Tetrahydro-3-oxo-1,1-diphenyl-N-(phenylmethyl)-3H-oxazolo[3,4-a]pyrazine-7(1H)-carboxamide] | ≤ 1000 | ≤ 1000
6 | O=C(NCc1ccsc1)N1CCN2C(=O)OC(c3ccccc3)(c3ccccc3)C2C1 (centres unmarked) [Example 96, Tetrahydro-3-oxo-1,1-diphenyl-N-[(3-thienyl)methyl]-3H-oxazolo[3,4-a]pyrazine-7(1H)-carboxamide] | ≤ 1000 | –
7 | O=C(CCCN1CC=CCC1)N1CCN2C(=O)OC(c3ccccc3)(c3ccccc3)C2C1 (centres unmarked) [Example 138, 7-[4-(3,6-Dihydropyridin-1(2H)-yl)-1-oxobutyl]-hexahydro-1,1-diphenyl-3H-oxazolo[3,4-a]pyrazin-7(1H)-3-one] | ≤ 1000 | –
8 | O=C(NCCN1CCCCCC1)N1CCN2C(=O)OC(c3ccccc3)(c3ccccc3)C2C1 (centres unmarked) [Example 147, N-[2-(Hexahydro-1H-azepin-1-yl)ethyl]tetrahydro-3-oxo-1,1-diphenyl-3H-oxazolo[3,4-a]pyrazine-7(1H)-carboxamide] | ≤ 1000 | –
9 | O=C(NCc1ccc(F)cc1)N1CCN2C(=O)OC(c3ccccc3)(c3ccccc3)C2C1 (centres unmarked) [Example 25, N-[(4-Fluorophenyl)methyl]-tetrahydro-3-oxo-1,1-diphenyl-3H-oxazolo[3,4-a]pyrazine-7(1H)-carboxamide] | ≤ 1000 | ≤ 1000
